Experimental data from the supplement of paper PMC11451515.

Tested on: SEM cells
Test: cell viability relative to DMSO control; higher = less cytotoxic
Details: 48 h
Method in brief: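 NOMO1 or SEM (500 cells/well) or P12-Ichikawa (1000 cells/well) leukemia cells were adapted for at least four passages in each medium. They were seeded in 1536-well plates (5 μl) and pin-dosed with library compounds in DMSO over an 11-point threefold series, 47 μM to 0.79 nM. CellTiter-Glo One luminescence was read after 48 h at 37°C. Viability is the per-plate percentage relative to DMSO wells, with cell-free wells as background.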

[1] = HPLM + 10% dialyzed FBS, 0.000781 µM
[2] = HPLM + 10% dialyzed FBS, 0.00234 µM
[3] = HPLM + 10% dialyzed FBS, 0.00702 µM
[4] = HPLM + 10% dialyzed FBS, 0.0211 µM
[5] = HPLM + 10% dialyzed FBS, 0.0632 µM
[6] = HPLM + 10% dialyzed FBS, 0.19 µM
[7] = HPLM + 10% dialyzed FBS, 0.569 µM
[8] = HPLM + 10% dialyzed FBS, 1.71 µM
[9] = HPLM + 10% dialyzed FBS, 5.12 µM
[10] = HPLM + 10% dialyzed FBS, 15.4 µM
[11] = HPLM + 10% dialyzed FBS, 46.1 µM
[12] = RPMI 5 mM glucose + 10% FBS, 0.000781 µM
[13] = RPMI 5 mM glucose + 10% FBS, 0.00234 µM
[14] = RPMI 5 mM glucose + 10% FBS, 0.00702 µM
[15] = RPMI 5 mM glucose + 10% FBS, 0.0211 µM
[16] = RPMI 5 mM glucose + 10% FBS, 0.0632 µM
[17] = RPMI 5 mM glucose + 10% FBS, 0.19 µM
[18] = RPMI 5 mM glucose + 10% FBS, 0.569 µM
[19] = RPMI 5 mM glucose + 10% FBS, 1.71 µM
[20] = RPMI 5 mM glucose + 10% FBS, 5.12 µM
[21] = RPMI 5 mM glucose + 10% FBS, 15.4 µM
[22] = RPMI 5 mM glucose + 10% FBS, 46.1 µM
[23] = RPMI 5 mM glucose + 10% dialyzed FBS, 0.000781 µM
[24] = RPMI 5 mM glucose + 10% dialyzed FBS, 0.00234 µM
[25] = RPMI 5 mM glucose + 10% dialyzed FBS, 0.00702 µM
[26] = RPMI 5 mM glucose + 10% dialyzed FBS, 0.0211 µM
[27] = RPMI 5 mM glucose + 10% dialyzed FBS, 0.0632 µM
[28] = RPMI 5 mM glucose + 10% dialyzed FBS, 0.19 µM
[29] = RPMI 5 mM glucose + 10% dialyzed FBS, 0.569 µM
[30] = RPMI 5 mM glucose + 10% dialyzed FBS, 1.71 µM
[31] = RPMI 5 mM glucose + 10% dialyzed FBS, 5.12 µM
[32] = RPMI 5 mM glucose + 10% dialyzed FBS, 15.4 µM
[33] = RPMI 5 mM glucose + 10% dialyzed FBS, 46.1 µM

Structure (SMILES) | cell viability [1] | cell viability [2] | cell viability [3] | cell viability [4] | cell viability [5] | cell viability [6] | cell viability [7] | cell viability [8] | cell viability [9] | cell viability [10] | cell viability [11] | cell viability [12] | cell viability [13] | cell viability [14] | cell viability [15] | cell viability [16] | cell viability [17] | cell viability [18] | cell viability [19] | cell viability [20] | cell viability [21] | cell viability [22] | cell viability [23] | cell viability [24] | cell viability [25] | cell viability [26] | cell viability [27] | cell viability [28] | cell viability [29] | cell viability [30] | cell viability [31] | cell viability [32] | cell viability [33]
CCN1CCN(CC1)CC(=O)NC2=CC=C(C3=C2C4=C(S3)C=CC=C4)C5=C6O\C(=C/C(=O)C6=CC=C5)N7CCOCC7 | 107% | 98.2% | 109% | 106% | 111% | 93.4% | 88.4% | 30% | 18% | 8.23% | 30.3% | 117% | 108% | 107% | 95.2% | 124% | 91.7% | 82.3% | 55.6% | 14.4% | 8.04% | 27.8% | 137% | 122% | 123% | 116% | 105% | 110% | 88.6% | 71.3% | 24% | 9.66% | 27.2%
CC[C@H](NC1=C2N=C[NH]C2=NC=N1)C/3=N/C4=C(C(=CC=C4)F)C(=O)N3C5=CC=CC=C5 | 94.9% | 118% | 133% | 120% | 114% | 97.2% | 87.4% | 106% | 81.7% | 73.6% | 52.1% | 79.2% | 94.8% | 112% | 105% | 111% | 108% | 88.2% | 88.9% | 84.5% | 57.6% | 53.1% | 90.2% | 110% | 132% | 120% | 116% | 84.2% | 116% | 110% | 92.8% | 80.1% | 57.3%
CC1(C)O[C@@H]2C[C@H]3[C@@H]4C[C@H](F)C5=CC(=O)C=C[C@]5(C)[C@@]4(F)[C@@H](O)C[C@]3(C)[C@]2(C(=O)CO)O1 | 97.9% | 98.7% | 91.3% | 83.5% | 58.3% | 51.5% | 41% | 44.9% | 43.8% | 54.4% | 45.4% | 98.3% | 120% | 87.1% | 82.6% | 65.5% | 63.2% | 63.4% | 49.5% | 51.1% | 56.1% | 53.7% | 116% | 109% | 98.4% | 91.3% | 59.6% | 55.2% | 39.1% | 51.7% | 47.8% | 44.6% | 49.2%
CNC(=O)c1ccc(N2C(=S)N(c3cnc(C#N)c(C(F)(F)F)c3)C(=O)C23CCC3)cc1F | 92.3% | 88.8% | 80.1% | 103% | 76.8% | 95.6% | 105% | 98% | 107% | 101% | 95.2% | 83.9% | 94.1% | 90.7% | 93.6% | 97.1% | 92.7% | 94.8% | 101% | 98.3% | 98.6% | 93.9% | 82.6% | 95.3% | 85.3% | 91.5% | 114% | 100% | 97.8% | 98.2% | 96.8% | 93.3% | 108%
N[S+]([O-])(=O)C1=C(Cl)C=C2\N=C/N[S+]([O-])(=O)C2=C1 | 91.1% | 96.5% | 111% | 99% | 91.2% | 59.6% | 123% | 105% | 114% | 148% | 122% | 101% | 104% | 94.3% | 78.1% | 92.5% | 45.3% | 122% | 119% | 104% | 107% | 123% | 109% | 98.7% | 103% | 80.2% | 101% | 56.3% | 134% | 109% | 109% | 123% | 133%
C[C@H]1C[C@@H]2[C@H](CC[C@@]3(C)[C@H]2CC[C@]3(OC(C)=O)C(C)=O)[C@@]\4(C)CCC(=O)\C=C14 | 64.9% | 101% | 79.8% | 87% | 88.5% | 85.1% | 92.9% | 87.6% | 85.3% | 88.9% | 101% | 75% | 89.9% | 97.5% | 92.2% | 105% | 96.2% | 84.5% | 96.7% | 91.6% | 80.8% | 85.9% | 75.4% | 96% | 77.3% | 105% | 101% | 94.2% | 78.7% | 94.1% | 88% | 80.1% | 88.9%
CCc1ccc(CCOc2ccc(CC3SC(=O)NC3=O)cc2)nc1 (centres undefined) | 120% | 115% | 112% | 113% | 124% | 108% | 42.4% | 117% | 122% | 119% | 89.6% | 93.5% | 86.9% | 88.1% | 85.9% | 85.6% | 83.4% | 61% | 94.9% | 87% | 80% | 80.7% | 112% | 115% | 111% | 143% | 129% | 116% | 68.6% | 137% | 122% | 122% | 110%
COc1ccc(-c2ccc3ncc4c(c3c2)n(-c2ccc(N3CCNCC3)c(C(F)(F)F)c2)c(=O)n4C)cn1 | 72.5% | 65.5% | 54.5% | 44.2% | 37.2% | 31.8% | 31.2% | 4.63% | 4.31% | 3.49% | 2.31% | 95.8% | 77.7% | 60.3% | 55.9% | 45.1% | 23.6% | 21.5% | 5.49% | 5.48% | 3.64% | 2.49% | 70% | 73.5% | 54.5% | 46.5% | 46% | 25.1% | 18.4% | 5.55% | 5.1% | 3.87% | 2.59%
COC\1=C(/OC)C(=O)\C(=C(C)/C1=O)CCCCCCCCCCO | 97.8% | 92% | 92.4% | 120% | 119% | 132% | 133% | 99% | 119% | 112% | 90.8% | 109% | 109% | 127% | 105% | 132% | 136% | 124% | 112% | 136% | 123% | 90.6% | 122% | 129% | 123% | 115% | 129% | 125% | 137% | 113% | 141% | 98.6% | 68.3%
Clc1ccc(-c2nc3sccn3c2/C=N/OCc2ccc(Cl)c(Cl)c2)cc1 | 127% | 122% | 101% | 119% | 124% | 111% | 115% | 88.5% | 100% | 101% | 117% |  |  |  |  |  |  |  |  |  |  |  | 131% | 122% | 111% | 137% | 120% | 134% | 135% | 104% | 113% | 110% | 115%
Cn1cnc2c(F)c(Nc3ccc(Br)cc3F)c(C(=O)NOCCO)cc21 | 95.3% | 84.2% | 93.4% | 22% | 105% | 89.5% | 80% | 85.4% | 87.9% | 87.7% | 74.3% | 85.3% | 86.1% | 96.9% | 16% | 94.1% | 108% | 89.2% | 85.9% | 87.1% | 70.9% | 61.6% | 88.1% | 85.5% | 107% | 19.6% | 87.5% | 91.5% | 83.1% | 70.6% | 76.2% | 66% | 52.8%
CCC[S+]([O-])c1ccc2[nH]c(NC(=O)OC)nc2c1 (centres undefined) | 78.9% | 96.2% | 111% | 86.7% | 100% | 105% | 83.1% | 94.9% | 94.6% | 38.2% | 33.4% | 74.9% | 99.4% | 100% | 99.3% | 114% | 93.9% | 82% | 84.9% | 91.8% | 24.4% | 32.2% | 72.7% | 99.8% | 95.9% | 109% | 101% | 113% | 83.1% | 105% | 98.6% | 23.2% | 17.3%
FC1=C(C=C(C\C2=N\NC(=O)C3=C2C=CC=C3)C=C1)C(=O)N4CCN(CC4)C(=O)C5CC5 | 80.9% | 84% | 100% | 99% | 97% | 94.9% | 85.7% | 91.6% | 86.5% | 19.7% | 41.1% | 94.7% | 95.8% | 103% | 109% | 107% | 105% | 92.8% | 87.1% | 76.3% | 13.1% | 26.5% | 71.6% | 79% | 92% | 70.5% | 77.7% | 81.3% | 74.8% | 78.2% | 62.4% | 17.5% | 24.8%
OC(c1cc(C(F)(F)F)nc2c(C(F)(F)F)cccc12)C1CCCCN1 (centres undefined) | 103% | 115% | 109% | 116% | 117% | 139% | 91.8% | 54.7% | 126% | 132% | 7.71% | 117% | 118% | 131% | 149% | 133% | 138% | 93.9% | 63.4% | 132% | 114% | 9.68% | 117% | 130% | 122% | 136% | 135% | 129% | 81.2% | 47.8% | 137% | 130% | 10.3%
CC(C)c1nc(CN(C)C(=O)N[C@H](C(=O)N[C@@H](Cc2ccccc2)C[C@H](O)[C@H](Cc2ccccc2)NC(=O)OCc2cncs2)C(C)C)cs1 | 84.8% | 90.5% | 101% | 87.5% | 96.2% | 91.6% | 85% | 85.1% | 81.5% | 62.6% | 74.4% | 94.9% | 103% | 110% | 103% | 90.7% | 89.7% | 84.8% | 88.8% | 87.3% | 80.1% | 87.5% | 104% | 113% | 98.4% | 85% | 106% | 86.1% | 94.8% | 105% | 92.4% | 88.1% | 99.8%
